Data taken from article PMC9133015 (Nature Communications, 2022).
Several values for one entry are separate records, joined by “and”; a condition that tells them apart may be missing. Identical values can stand only once.

Assays:
Assay in all cases: Kinase inhibitor specificity profiling (Reaction Biology Corporation)
Type in all cases: biochemical
Set-up in all cases: % Enzyme Activity (relative to DMSO controls): concentration or dose not given beside the values
[1] = target: T1, panel of 370 protein kinases (Homo sapiens, UniProt O15146); conditions: 2 h, kinase MUSK; read-out: % Enzyme Activity (relative to DMSO controls)
T1 construct: purchased Reaction Biology Corporation (assay service)

[2] = target: T2, panel of 370 protein kinases (Homo sapiens, UniProt P07947); conditions: 2 h, kinase YES/YES1; read-out: % Enzyme Activity (relative to DMSO controls)
T2 construct: purchased Reaction Biology Corporation (assay service)

[3] = target: T3, panel of 370 protein kinases (Homo sapiens, UniProt P10398); conditions: 2 h, kinase ARAF; read-out: % Enzyme Activity (relative to DMSO controls)
T3 construct: purchased Reaction Biology Corporation (assay service)

[4] = target: T4, panel of 370 protein kinases (Homo sapiens, UniProt P30291); conditions: 2 h, kinase WEE1; read-out: % Enzyme Activity (relative to DMSO controls)
T4 construct: purchased Reaction Biology Corporation (assay service)

[5] = target: T5, panel of 370 protein kinases (Homo sapiens, UniProt P35626); conditions: 2 h, kinase GRK3; read-out: % Enzyme Activity (relative to DMSO controls)
T5 construct: purchased Reaction Biology Corporation (assay service)

[6] = target: T6, panel of 370 protein kinases (Homo sapiens, UniProt P35968); conditions: 2 h, kinase KDR/VEGFR2; read-out: % Enzyme Activity (relative to DMSO controls)
T6 construct: purchased Reaction Biology Corporation (assay service)

[7] = target: T7, panel of 370 protein kinases (Homo sapiens, UniProt P53355); conditions: 2 h, kinase DAPK1; read-out: % Enzyme Activity (relative to DMSO controls)
T7 construct: purchased Reaction Biology Corporation (assay service)

[8] = target: T8, panel of 370 protein kinases (Homo sapiens, UniProt P68400); conditions: 2 h, kinase CK2a; read-out: % Enzyme Activity (relative to DMSO controls)
T8 construct: purchased Reaction Biology Corporation (assay service)

[9] = target: T9, panel of 370 protein kinases (Homo sapiens, UniProt Q08345); conditions: 2 h, kinase DDR1; read-out: % Enzyme Activity (relative to DMSO controls)
T9 construct: purchased Reaction Biology Corporation (assay service)

[10] = target: T10, panel of 370 protein kinases (Homo sapiens, UniProt Q13164); conditions: 2 h, kinase ERK5/MAPK7; read-out: % Enzyme Activity (relative to DMSO controls)
T10 construct: purchased Reaction Biology Corporation (assay service)

[11] = target: T11, panel of 370 protein kinases (Homo sapiens, UniProt Q15746); conditions: 2 h, kinase MLCK/MYLK; read-out: % Enzyme Activity (relative to DMSO controls)
T11 construct: purchased Reaction Biology Corporation (assay service)

[12] = target: T12, panel of 370 protein kinases (Homo sapiens, UniProt Q16512); conditions: 2 h, kinase PKN1/PRK1; read-out: % Enzyme Activity (relative to DMSO controls)
T12 construct: purchased Reaction Biology Corporation (assay service)

[13] = target: T13, panel of 370 protein kinases (Homo sapiens, UniProt Q16584); conditions: kinase MLK3/MAP3K11
T13 construct: purchased Reaction Biology Corporation (assay service)

[14] = target: T14, panel of 370 protein kinases (Homo sapiens, UniProt Q6PHR2); conditions: kinase ULK3
T14 construct: purchased Reaction Biology Corporation (assay service)

[15] = target: T15, panel of 370 protein kinases (Homo sapiens, UniProt Q86Y07); conditions: 2 h, kinase VRK2; read-out: % Enzyme Activity (relative to DMSO controls)
T15 construct: purchased Reaction Biology Corporation (assay service)

[16] = target: T16, panel of 370 protein kinases (Homo sapiens, UniProt Q8N4C8); conditions: 2 h, kinase MINK/MINK1; read-out: % Enzyme Activity (relative to DMSO controls)
T16 construct: purchased Reaction Biology Corporation (assay service)

[17] = target: T17, panel of 370 protein kinases (Homo sapiens, UniProt Q9HBY8); conditions: 2 h, kinase SGK2; read-out: % Enzyme Activity (relative to DMSO controls)
T17 construct: purchased Reaction Biology Corporation (assay service)

[18] = target: T18, panel of 370 protein kinases (Homo sapiens, UniProt Q9UEW8); conditions: 2 h, kinase STK39/STLK3; read-out: % Enzyme Activity (relative to DMSO controls)
T18 construct: purchased Reaction Biology Corporation (assay service)

[19] = target: T19, panel of 370 protein kinases (Homo sapiens, UniProt Q9UPE1); conditions: 2 h, kinase MSSK1/STK23; read-out: % Enzyme Activity (relative to DMSO controls)
T19 construct: purchased Reaction Biology Corporation (assay service)

[20] = target: T20, panel of 370 protein kinases (Homo sapiens, UniProt Q9UPZ9); conditions: 2 h, kinase LCK2/ICK; read-out: % Enzyme Activity (relative to DMSO controls)
T20 construct: purchased Reaction Biology Corporation (assay service)

[21] = target: T21, panel of 370 protein kinases (Homo sapiens, UniProt Q9UQM7); conditions: 2 h, kinase CAMK2a; read-out: % Enzyme Activity (relative to DMSO controls)
T21 construct: purchased Reaction Biology Corporation (assay service)

T13 sequence (Q16584 whole entry): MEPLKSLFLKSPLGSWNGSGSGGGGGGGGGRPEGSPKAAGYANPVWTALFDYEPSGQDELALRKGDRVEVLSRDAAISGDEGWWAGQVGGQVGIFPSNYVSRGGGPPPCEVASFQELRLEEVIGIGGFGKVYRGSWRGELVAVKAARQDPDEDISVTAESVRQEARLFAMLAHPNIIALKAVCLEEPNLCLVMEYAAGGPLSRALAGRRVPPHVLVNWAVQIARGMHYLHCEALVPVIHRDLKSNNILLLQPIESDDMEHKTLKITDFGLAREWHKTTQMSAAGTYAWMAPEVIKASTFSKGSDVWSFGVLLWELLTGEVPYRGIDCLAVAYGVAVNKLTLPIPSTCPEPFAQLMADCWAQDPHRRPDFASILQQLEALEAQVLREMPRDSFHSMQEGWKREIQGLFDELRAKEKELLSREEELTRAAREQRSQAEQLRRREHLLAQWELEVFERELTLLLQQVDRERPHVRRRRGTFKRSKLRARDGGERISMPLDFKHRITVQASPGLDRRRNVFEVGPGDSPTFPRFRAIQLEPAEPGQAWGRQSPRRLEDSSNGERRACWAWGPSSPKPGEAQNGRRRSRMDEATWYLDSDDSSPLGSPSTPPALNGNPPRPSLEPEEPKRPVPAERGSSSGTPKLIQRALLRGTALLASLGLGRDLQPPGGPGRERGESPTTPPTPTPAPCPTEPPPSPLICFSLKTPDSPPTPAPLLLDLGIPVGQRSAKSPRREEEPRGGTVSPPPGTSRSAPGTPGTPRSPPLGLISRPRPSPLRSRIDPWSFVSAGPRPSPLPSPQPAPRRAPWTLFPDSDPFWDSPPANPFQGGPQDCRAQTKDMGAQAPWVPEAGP
T14 sequence (Q6PHR2 whole entry): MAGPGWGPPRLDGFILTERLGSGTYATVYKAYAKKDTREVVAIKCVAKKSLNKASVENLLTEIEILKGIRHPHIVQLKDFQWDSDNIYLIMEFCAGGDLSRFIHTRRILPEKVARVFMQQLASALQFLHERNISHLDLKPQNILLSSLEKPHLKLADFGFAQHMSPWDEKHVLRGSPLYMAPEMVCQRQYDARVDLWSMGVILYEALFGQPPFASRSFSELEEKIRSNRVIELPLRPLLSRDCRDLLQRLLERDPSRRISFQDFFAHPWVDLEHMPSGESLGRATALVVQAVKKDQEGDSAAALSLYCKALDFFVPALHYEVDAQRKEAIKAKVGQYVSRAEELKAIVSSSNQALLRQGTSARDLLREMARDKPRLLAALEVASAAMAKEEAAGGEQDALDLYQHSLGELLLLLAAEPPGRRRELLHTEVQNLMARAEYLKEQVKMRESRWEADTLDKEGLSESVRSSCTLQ
T2 sequence (P07947 whole entry): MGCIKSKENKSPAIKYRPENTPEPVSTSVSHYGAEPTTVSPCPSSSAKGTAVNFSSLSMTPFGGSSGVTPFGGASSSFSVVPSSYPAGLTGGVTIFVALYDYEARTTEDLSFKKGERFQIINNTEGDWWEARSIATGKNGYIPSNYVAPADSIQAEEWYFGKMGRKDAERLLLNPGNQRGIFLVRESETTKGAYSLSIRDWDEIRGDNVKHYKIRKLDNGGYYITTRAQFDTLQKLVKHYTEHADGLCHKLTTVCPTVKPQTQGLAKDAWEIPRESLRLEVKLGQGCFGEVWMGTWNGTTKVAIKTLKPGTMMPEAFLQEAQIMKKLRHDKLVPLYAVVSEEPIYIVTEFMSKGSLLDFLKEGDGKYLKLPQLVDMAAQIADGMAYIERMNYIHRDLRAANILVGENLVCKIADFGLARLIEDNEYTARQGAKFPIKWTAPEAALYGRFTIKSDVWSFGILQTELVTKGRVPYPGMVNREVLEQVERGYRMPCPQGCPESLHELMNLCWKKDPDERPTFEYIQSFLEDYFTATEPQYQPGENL
T17 sequence (Q9HBY8 whole entry): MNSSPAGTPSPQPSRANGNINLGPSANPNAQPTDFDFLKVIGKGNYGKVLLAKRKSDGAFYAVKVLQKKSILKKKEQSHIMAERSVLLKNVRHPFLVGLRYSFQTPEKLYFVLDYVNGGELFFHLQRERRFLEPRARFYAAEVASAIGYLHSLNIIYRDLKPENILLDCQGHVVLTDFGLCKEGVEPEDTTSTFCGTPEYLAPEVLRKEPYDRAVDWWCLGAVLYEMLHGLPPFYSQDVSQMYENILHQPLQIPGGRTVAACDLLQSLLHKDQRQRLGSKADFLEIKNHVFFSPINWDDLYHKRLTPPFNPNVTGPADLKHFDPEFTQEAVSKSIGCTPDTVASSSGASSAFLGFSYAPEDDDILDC
T19 sequence (Q9UPE1 whole entry): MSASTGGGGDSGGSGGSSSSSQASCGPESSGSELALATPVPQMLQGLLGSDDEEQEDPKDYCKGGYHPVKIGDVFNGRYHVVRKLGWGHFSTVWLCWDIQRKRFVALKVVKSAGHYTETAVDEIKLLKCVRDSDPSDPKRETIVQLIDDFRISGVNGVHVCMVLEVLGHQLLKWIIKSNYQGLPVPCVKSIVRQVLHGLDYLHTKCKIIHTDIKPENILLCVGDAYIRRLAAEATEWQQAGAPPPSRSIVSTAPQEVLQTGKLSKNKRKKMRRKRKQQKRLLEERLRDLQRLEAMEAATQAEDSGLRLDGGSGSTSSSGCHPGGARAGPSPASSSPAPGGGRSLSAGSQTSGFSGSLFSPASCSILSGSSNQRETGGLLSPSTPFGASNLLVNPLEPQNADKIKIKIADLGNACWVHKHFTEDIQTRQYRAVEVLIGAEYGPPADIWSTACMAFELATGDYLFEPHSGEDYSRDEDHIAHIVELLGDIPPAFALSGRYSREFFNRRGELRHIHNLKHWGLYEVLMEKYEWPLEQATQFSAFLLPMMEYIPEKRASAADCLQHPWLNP
T11 sequence (Q15746 whole entry): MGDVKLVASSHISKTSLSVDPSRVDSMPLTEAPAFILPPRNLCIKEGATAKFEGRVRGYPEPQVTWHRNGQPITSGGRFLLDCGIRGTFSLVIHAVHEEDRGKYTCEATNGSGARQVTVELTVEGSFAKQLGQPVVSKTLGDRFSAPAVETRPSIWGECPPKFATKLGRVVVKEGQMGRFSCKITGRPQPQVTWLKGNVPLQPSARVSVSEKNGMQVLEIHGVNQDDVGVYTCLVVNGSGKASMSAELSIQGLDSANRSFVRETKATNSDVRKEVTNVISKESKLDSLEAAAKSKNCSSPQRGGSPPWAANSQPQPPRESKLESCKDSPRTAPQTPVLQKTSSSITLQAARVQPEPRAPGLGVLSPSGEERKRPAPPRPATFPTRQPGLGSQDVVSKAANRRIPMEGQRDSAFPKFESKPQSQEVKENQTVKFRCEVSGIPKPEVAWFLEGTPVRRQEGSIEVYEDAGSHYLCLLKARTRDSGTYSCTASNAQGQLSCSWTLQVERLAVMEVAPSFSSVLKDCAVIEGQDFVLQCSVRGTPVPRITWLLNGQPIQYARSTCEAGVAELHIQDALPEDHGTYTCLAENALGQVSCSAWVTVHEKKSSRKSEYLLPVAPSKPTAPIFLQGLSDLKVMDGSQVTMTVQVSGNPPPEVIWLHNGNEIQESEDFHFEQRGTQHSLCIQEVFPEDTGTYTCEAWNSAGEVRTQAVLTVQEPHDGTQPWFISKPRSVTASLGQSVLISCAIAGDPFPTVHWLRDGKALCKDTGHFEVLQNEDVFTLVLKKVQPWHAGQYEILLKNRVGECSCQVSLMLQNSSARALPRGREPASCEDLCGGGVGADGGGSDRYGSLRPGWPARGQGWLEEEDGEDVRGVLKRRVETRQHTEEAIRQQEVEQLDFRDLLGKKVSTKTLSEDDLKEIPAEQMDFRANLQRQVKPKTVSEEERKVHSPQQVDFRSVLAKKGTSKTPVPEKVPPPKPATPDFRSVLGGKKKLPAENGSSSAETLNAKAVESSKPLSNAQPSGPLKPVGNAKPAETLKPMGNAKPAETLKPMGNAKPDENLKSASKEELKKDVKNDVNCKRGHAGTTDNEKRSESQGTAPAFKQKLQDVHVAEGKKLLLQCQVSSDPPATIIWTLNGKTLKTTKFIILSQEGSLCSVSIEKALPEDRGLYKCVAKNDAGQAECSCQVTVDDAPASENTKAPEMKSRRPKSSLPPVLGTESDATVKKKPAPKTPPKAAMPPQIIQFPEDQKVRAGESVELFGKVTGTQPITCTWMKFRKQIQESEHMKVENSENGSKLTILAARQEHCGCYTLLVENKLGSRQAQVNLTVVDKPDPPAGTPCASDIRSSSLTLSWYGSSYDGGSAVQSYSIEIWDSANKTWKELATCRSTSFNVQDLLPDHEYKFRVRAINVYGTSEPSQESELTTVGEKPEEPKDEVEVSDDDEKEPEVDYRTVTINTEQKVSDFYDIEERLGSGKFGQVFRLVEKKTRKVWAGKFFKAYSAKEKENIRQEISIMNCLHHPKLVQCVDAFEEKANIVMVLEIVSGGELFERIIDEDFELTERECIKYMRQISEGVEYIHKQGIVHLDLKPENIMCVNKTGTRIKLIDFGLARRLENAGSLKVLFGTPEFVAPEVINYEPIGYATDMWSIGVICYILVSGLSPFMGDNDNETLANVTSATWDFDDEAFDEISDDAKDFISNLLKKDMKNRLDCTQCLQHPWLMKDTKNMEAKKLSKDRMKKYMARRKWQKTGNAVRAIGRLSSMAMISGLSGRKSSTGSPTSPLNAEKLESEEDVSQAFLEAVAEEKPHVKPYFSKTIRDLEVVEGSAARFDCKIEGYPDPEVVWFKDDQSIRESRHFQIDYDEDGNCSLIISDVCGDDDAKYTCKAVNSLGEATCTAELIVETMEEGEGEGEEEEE

CCN1CCN(C(=O)c2ccc(Nc3ncc(F)c(-c4ccc5nc(N(C)C)sc5c4)n3)nc2)CC1 [YK-2-69]
remaining activity at 1 µM [1]: 89.2% | remaining activity at 1 µM [2]: 108% | remaining activity at 1 µM [3]: 90.6% | remaining activity at 1 µM [4]: 98.5% | remaining activity at 1 µM [5]: 108% | remaining activity at 1 µM [6]: 88.6% | remaining activity at 1 µM [7]: 62.2% | remaining activity at 1 µM [8]: 52.3% | remaining activity at 1 µM [9]: 86.2% | remaining activity at 1 µM [10]: 104% | remaining activity at 1 µM [11]: 97.5% | remaining activity at 1 µM [12]: 75.7% | % Enzyme Activity (relative to DMSO controls) [13]: 97.08% and 87.23% | % Enzyme Activity (relative to DMSO controls) [14]: 97.12% and 96.24% | remaining activity at 1 µM [15]: 93.1% | remaining activity at 1 µM [16]: 100% | remaining activity at 1 µM [17]: 97.5% | remaining activity at 1 µM [18]: 39.9% | remaining activity at 1 µM [19]: 96.3% | remaining activity at 1 µM [20]: 99.2% | remaining activity at 1 µM [21]: 37.5%
